The target of this assay is human SSTR2 (Homo sapiens (Human), UniProt P30874). In words: Human SSTR2 intracellular cAMP functional assay for agonists (HTRF). In kind it is cell-based. The protocol: Functional Assay for SSTR2 Agonists
General overview: All five SSTR subtypes are Gi coupled G-protein coupled receptors (GPCRs) that lead to decreases in intracellular cyclic AMP (cAMP) when activated by an agonist. […] Human SSTR2 intracellular cAMP assay is described below. The human SSTR1, 3, 4 and 5 assays follow the same protocol of SSTR2.
The cells are cultured at 37° C., 5% CO2 and 95% humidity. […] The cells are incubated for 20 minutes at 37° C. […] The cells are treated with 50 μL of lysis buffer (HRTF cAMP kit, Cisbio). […] The time-resolved fluorescent signal is read with a Tecan M1000Pro multiplate reader. The intracellular cAMP concentrations are calculated by regression to a standard curve and are plotted vs. the concentration of the compounds of the invention and the EC50 of the compounds are calculated using standard methods. All data manipulations are in GraphPad Prism v6.
On the technique in general: TR-FRET usually uses a lanthanide donor and a delayed reading to cut background.

The mark [1] stands for this setting: CHO-K1 cells stably expressing human SSTR2, NKH477-stimulated cAMP, read-out: EC50 (inhibition of cAMP activities via human SST2R).

Where two headings read alike, the source gives them in different places.

In US10351547B2, “Somatostatin modulators and uses thereof” (priority 2016, dated 2019) one finds EC50 data, which are given here for 27 compounds.

Sequence of human SSTR2 (P30874 whole entry): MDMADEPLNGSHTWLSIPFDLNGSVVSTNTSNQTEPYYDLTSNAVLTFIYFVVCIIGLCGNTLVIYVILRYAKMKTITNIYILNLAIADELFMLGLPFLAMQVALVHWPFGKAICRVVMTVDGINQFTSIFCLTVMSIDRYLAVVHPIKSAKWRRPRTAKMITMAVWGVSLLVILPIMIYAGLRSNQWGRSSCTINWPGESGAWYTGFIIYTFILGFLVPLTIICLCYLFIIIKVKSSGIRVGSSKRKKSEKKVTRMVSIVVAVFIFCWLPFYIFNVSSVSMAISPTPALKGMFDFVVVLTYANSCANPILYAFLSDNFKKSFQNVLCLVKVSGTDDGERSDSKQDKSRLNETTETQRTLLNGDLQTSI

On to “3-[4-(4-aminopiperidin-1-yl)-7-chloro-3-(3,5-dichlorophenyl)cinnolin-6-yl]-5-fluoro-2-hydroxybenzonitrile [1-27]”, for which the EC50 – broadly, the concentration that produces a half-maximal response – under setting [1] was < 10 nM.

For `Oc1c(F)cccc1-c1ccc2ncc(-c3cc(F)cc(F)c3)c(N3CC[C@H]4NCCO[C@@H]4C3)c2c1` (racemic) [2-144, trans-2-[3-(3,5-difluorophenyl)-4-{octahydro-1H-pyrido[3,4-b]morpholin-6-yl}quinolin-6-yl]-6-fluorophenol], the EC50 under setting [1] is < 10 nM.

`COCCOc1c(C#N)cccc1-c1ccc2ncc(-c3cc(C)cc(F)c3)c(N3CC[C@@H](N)[C@@H](O)C3)c2c1` (racemic) [2-224, 3-{4-[cis-4-amino-3-hydroxypiperidin-1-yl]-3-(3-fluoro-5-methylphenyl)quinolin-6-yl}-2-(2-methoxyethoxy)benzonitrile]: the EC50 under setting [1] is < 10 nM.

Take `Cc1cc(F)cc(-c2cnc3ccc(-c4cccc(F)c4/C=N/O)cc3c2N2CC[C@@H](N)[C@@H](O)C2)c1` (racemic) [2-227, cis-4-amino-1-(6-{3-fluoro-2-[(hydroxyimino)methyl]phenyl}-3-(3-fluoro-5-methylphenyl)quinolin-4-yl)piperidin-3-ol]: under setting [1], the EC50 was < 10 nM.

`CO/N=C/c1cccc(-c2ccc3ncc(-c4cc(F)cc(F)c4)c(N4CC[C@H]5NCCO[C@@H]5C4)c3c2)c1O` (racemic) [2-243, 2-{4-[trans-octahydro-1H-pyrido[3,4-b]morpholin-6-yl]-3-(3,5-difluorophenyl)quinolin-6-yl}-6-(methoxyiminomethyl)phenol]: the EC50 under setting [1] was < 10 nM.

For the compound `Cc1cc(F)cc(-c2nnc3cc(Cl)c(-c4cc(F)cc(C(N)=O)c4)cc3c2N2CC[C@@H](N)[C@H](F)C2)c1` (relative stereo) [1-5, 3-{4-[trans-4-amino-3-fluoropiperidin-1-yl]-7-chloro-3-(3-fluoro-5-methylphenyl)cinnolin-6-yl}-5-fluorobenzamide], the EC50 under setting [1] is < 10 nM.

As to `Cc1cc(F)cc(-c2nnc3cc(Cl)c(-c4cc(F)cc(C(N)=O)c4)cc3c2N2CC[C@H](N)[C@H](F)C2)c1` (relative stereo) [1-6, 3-{4-[cis-4-amino-3-fluoropiperidin-1-yl]-7-chloro-3-(3-fluoro-5-methylphenyl)cinnolin-6-yl}-5-fluorobenzamide], the EC50 under setting [1] is < 10 nM.

Take `CO[C@@H]1CN(c2c(-c3cc(C)cc(F)c3)nnc3cc(Cl)c(-c4cc(F)cc(C(N)=O)c4)cc23)CC[C@H]1N` (relative stereo) [1-10, 3-{4-[trans-4-amino-3-methoxypiperidin-1-yl]-7-chloro-3-(3-fluoro-5-methylphenyl)cinnolin-6-yl}-5-fluorobenzamide]: under setting [1], the EC50 is < 10 nM.

Take `CO[C@@H]1CN(c2c(-c3cc(F)cc(F)c3)cnc3ccc(-c4cccc(C#N)c4O)cc23)CC[C@H]1N` (relative stereo) [2-3, 3-{4-[trans-4-amino-3-methoxypiperidin-1-yl]-3-(3,5-difluorophenyl)quinolin-6-yl}-2-hydroxybenzonitrile]: the EC50 is < 10 nM.

As to `CO[C@@H]1CN(c2c(-c3cc(F)cc(F)c3)cnc3ccc(-c4cccc(C#N)c4)cc23)CC[C@H]1N` (relative stereo) [2-4, 3-{4-[trans-4-amino-3-methoxypiperidin-1-yl]-3-(3,5-difluorophenyl)quinolin-6-yl}benzonitrile], the EC50 under setting [1] was < 10 nM.

`N#Cc1cccc(-c2ccc3ncc(-c4cc(F)cc(F)c4)c(N4CC[C@H]5NCCO[C@@H]5C4)c3c2)c1O` (relative stereo) [2-19, 3-{4-[trans-octahydro-1H-pyrido[3,4-b]morpholin-6-yl]-3-(3,5-difluorophenyl)quinolin-6-yl}-2-hydroxybenzonitrile]: the EC50 under setting [1] is < 10 nM.

In the case of `Cc1cc(F)cc(-c2cnc3ccc(-c4cccc(C#N)c4O)cc3c2N2CC[C@H]3NCCO[C@@H]3C2)c1` (relative stereo) [2-20], the EC50 under setting [1] was < 10 nM.

In the case of `COCOc1c(C#N)cccc1-c1ccc2ncc(-c3cc(F)cc(F)c3)c(N3CC[C@H](N)[C@H](O)C3)c2c1` (relative stereo) [2-58, 3-{4-[cis-4-amino-3-hydroxypiperidin-1-yl]-3-(3,5-difluorophenyl)quinolin-6-yl}-2-(methoxymethoxy)benzonitrile], the EC50 under setting [1] is < 10 nM.

On to `N#Cc1cccc(-c2ccc3ncc(-c4cc(F)cc(F)c4)c(N4CC[C@@H](N)[C@@H](O)C4)c3c2)c1O` (relative stereo) [2-60, cis-3-{4-[4-amino-3-hydroxypiperidin-1-yl]-3-(3,5-difluorophenyl)quinolin-6-yl}-2-hydroxybenzonitrile], for which the EC50 is < 10 nM.

For the compound `N#Cc1cc(F)cc(-c2ccc3ncc(-c4cc(F)cc(F)c4)c(N4CC[C@H](N)[C@H](O)C4)c3c2)c1O` (relative stereo) [2-63, 3-{4-[cis-4-amino-3-hydroxypiperidin-1-yl]-3-(3,5-difluorophenyl)quinolin-6-yl}-5-fluoro-2-hydroxybenzonitrile], the EC50 under setting [1] is < 10 nM.

In the case of `N#Cc1cccc(-c2ccc3ncc(-c4cc(F)cc(F)c4)c(N4CC[C@@H](N)[C@H](C#N)C4)c3c2)c1O` (relative stereo) [2-92, trans-4-amino-1-[6-(3-cyano-2-hydroxyphenyl)-3-(3,5-difluorophenyl)quinolin-4-yl]piperidine-3-carbonitrile], the EC50 under setting [1] was in the range of 100 to 1000 nM.

Turning to `N#Cc1cccc(-c2ccc3ncc(-c4cc(F)cc(F)c4)c(N4CC[C@H](N)[C@H](C#N)C4)c3c2)c1O` (relative stereo) [2-94, cis-4-amino-1-[6-(3-cyano-2-hydroxyphenyl)-3-(3,5-difluorophenyl)quinolin-4-yl]piperidine-3-carbonitrile], the EC50 under setting [1] lay in the range of 10 to 100 nM.

For `N#Cc1cc(F)c(F)c(-c2ccc3ncc(-c4cc(F)cc(F)c4)c(N4CC[C@H]5NCCO[C@@H]5C4)c3c2)c1O` (relative stereo) [2-100, 3-{4-[trans-octahydro-1H-pyrido[3,4-b]morpholin-6-yl]-3-(3,5-difluorophenyl)quinolin-6-yl}-4,5-difluoro-2-hydroxybenzonitrile], the EC50 under setting [1] was 10 to 100 nM.

On to `COC(=O)[C@@H]1CN(c2c(-c3cc(F)cc(F)c3)cnc3ccc(-c4cccc(C#N)c4O)cc23)CC[C@H]1N` (relative stereo) [2-143, methyl trans-4-amino-1-[6-(3-cyano-2-hydroxyphenyl)-3-(3,5-difluorophenyl)quinolin-4-yl]piperidine-3-carboxylate], for which, under setting [1], the EC50 is < 10 nM.

Turning to `N#Cc1cccc(-c2ccc3ncc(-c4cc(F)cc(F)c4)c(N4CC[C@@H](N)[C@H](C(N)=O)C4)c3c2)c1O` (relative stereo) [2-146, trans-4-Amino-1-[6-(3-cyano-2-hydroxyphenyl)-3-(3,5-difluorophenyl)quinolin-4-yl]piperidine-3-carboxamide], the EC50 under setting [1] is > 1000 nM.

As to `CNC(=O)[C@@H]1CN(c2c(-c3cc(F)cc(F)c3)cnc3ccc(-c4cccc(C#N)c4O)cc23)CC[C@H]1N` (relative stereo) [2-149, trans-4-Amino-1-[6-(3-cyano-2-hydroxyphenyl)-3-(3,5-difluorophenyl)quinolin-4-yl]-N-methylpiperidine-3-carboxamide], the EC50 fell in the range of 100 to 1000 nM.

Take `CN(C)C(=O)[C@@H]1CN(c2c(-c3cc(F)cc(F)c3)cnc3ccc(-c4cccc(C#N)c4O)cc23)CC[C@H]1N` (relative stereo) [2-151, trans-4-amino-1-[6-(3-cyano-2-hydroxyphenyl)-3-(3,5-difluorophenyl)quinolin-4-yl]-N,N-dimethylpiperidine-3-carboxamide]: the EC50 under setting [1] is 100 to 1000 nM.

Regarding `COC(=O)[C@@H]1CN(c2c(-c3cc(F)cc(F)c3)cnc3ccc(-c4cccc(C#N)c4O)cc23)CC[C@H]1N` (relative stereo) [2-170, methyl (trans)-4-amino-1-[6-(3-cyano-2-hydroxyphenyl)-3-(3,5-difluorophenyl)quinolin-4-yl]piperidine-3-carboxylate], the EC50 lay within 100 to 1000 nM.

`Cc1cc(F)cc(-c2cnc3ccc(-c4cc(F)cc(C#N)c4O)cc3c2N2CC[C@H](N)[C@H](O)C2)c1` (relative stereo) [2-219, cis-3-{4-[4-amino-3-hydroxypiperidin-1-yl]-3-(3-fluoro-5-methylphenyl)quinolin-6-yl}-5-fluoro-2-hydroxybenzonitrile]: the EC50 under setting [1] was < 10 nM.

As to `COCCOc1c(C#N)cc(F)cc1-c1ccc2ncc(-c3cc(C)cc(F)c3)c(N3CC[C@H](N)[C@H](O)C3)c2c1` (relative stereo) [2-220, cis-3-{4-[4-amino-3-hydroxypiperidin-1-yl]-3-(3-fluoro-5-methylphenyl)quinolin-6-yl}-5-fluoro-2-(2-methoxyethoxy)benzonitrile], under setting [1], the EC50 was < 10 nM.

As for `CON=Cc1cccc(-c2ccc3ncc(-c4cc(C)cc(F)c4)c(N4CC[C@H]5NCCO[C@@H]5C4)c3c2)c1O` (relative stereo) [2-221, 2-{4-[trans-octahydro-1H-pyrido[3,4-b]morpholin-6-yl]-3-(3-fluoro-5-methylphenyl)quinolin-6-yl}-6-[(methoxyimino)methyl]phenol], under setting [1], the EC50 was < 10 nM.

Regarding `COCCOc1c(C#N)cccc1-c1ccc2ncc(-c3cc(F)cc(F)c3)c(N3CC[C@H](N)[C@H](O)C3)c2c1` (relative stereo) [2-225, cis-3-{4-[4-amino-3-hydroxypiperidin-1-yl]-3-(3,5-difluorophenyl)quinolin-6-yl}-2-(2-methoxyethoxy)benzonitrile], the EC50 under setting [1] is < 10 nM.
